The source of these data is US12606543B2, “Indole derivatives as serotonergic agents useful for the treatment of disorders related thereto” (priority 2023, dated 2026).

A short description of this series: Pharmacokinetic studies in rat (i.v.). The series is classed as in vivo. To be noted: male, Sprague-Dawley, plasma; for concentration at 0.25 h / concentration at 1 h / concentration at 4 h: intravenous, dose per Dose column (1.32-2.09 mg/kg); for half-life / AUC(0-t): iv, rat plasma, i.v., dose per Dose column; for half-life: estimated from 2 points only. The method, then:
Animals: Male Sprague-Dawley rats (˜225-350 g) from Charles River Labs were acclimatized for a minimum of 5 days prior to start of study procedures. Body weights were recorded on the day of dosing.
Any abnormalities were documented including presence/absence of wet dog shakes/back muscle contractions (WDS/BMC).
Dosing: Formulations were administered intravenously (i.v.) via the tail vein using a 25 G needle connected to a 1 cc syringe.
The exemplary compounds of Formula (I) were freshly prepared at the appropriate concentrations in 5% Tween-80 in saline.
Blood collection time (h): 0, […], 1 and 4
Volume/time-point: ˜0.25 mL (saphenous vein)
Instrumentation: AB Sciex QTRAP 4000 or 6500 MS/MS system equipped with an LC system with a binary pump, a solvent degasser, a thermostated column compartment, and a multiplate autosampler.
Analysis software: Phoenix® WinNonlin® 8.3 (Pharsight, Certara, Mountainview, CA).
Analysis methods: non-compartmental analysis, linear up/log down trapezoidal rule.
PK parameters: t1/2 and AUC0-tlast was estimated.
The Compounds of Formula (I) were freshly prepared at the appropriate concentrations in 5% Tween-80 in saline.
Instrumentation: AB Sciex QTRAP 4000 or 6500 MS/MS system equipped with an LC system with a binary pump, a solvent degasser, a thermostated column compartment and a multiplate autosampler.
PK parameters: t1/2 and AUC0-tlast will be estimated.

Setting [1] is: first animal (R07/R04/R01/R10), read-out: Plasma concentration.
The mark [2] stands for this setting: mean of 3 rats, read-out: Plasma concentration, Mean ± SD.
[3] abbreviates: second animal (R08/R05/R02/R11), read-out: Plasma concentration.
The mark [4] stands for this setting: third animal (R09/R06/R03/R12), read-out: Plasma concentration.

Read-outs that look alike come from different tables or passages of the source.

For `COCCN1CCC[C@@H]1Cc1c[nH]c2ccc(OC)cc12` [(R) I-98, (R)-5-Methoxy-3-((1-(2-methoxyethyl)pyrrolidin-2-yl)methyl)-1H-indole], the concentration at 0.25 h runs as follows: under setting [1], 411 ng/mL; under setting [2], 446 ± 34.1 ng/mL; under setting [3], 479 ng/mL; under setting [4], 449 ng/mL. For the same compound, the concentration at 1 h came out at 128 ng/mL under setting [1], 113 ± 14.2 ng/mL under setting [2], 110 ng/mL under setting [3] and 100 ng/mL under setting [4]. Further, the concentration at 4 h reads like this: under setting [1], 2.48 ng/mL; under setting [2], 2.32 ± 0.139 ng/mL; under setting [3], 2.25 ng/mL; under setting [4], 2.23 ng/mL. For the same compound, the half-life is 30.8 min (first animal (R07/R04/R01/R10), read-out: Apparent t1/2 (converted)); 30.4 ± 0.473 min (mean of 3 rats, read-out: Apparent t1/2, Mean ± SD (converted)); 29.9 min (second animal (R08/R05/R02/R11), read-out: Apparent t1/2 (converted)); 30.3 min (third animal (R09/R06/R03/R12), read-out: Apparent t1/2 (converted)). Also, the AUC(0-t) runs as follows: (first animal (R07/R04/R01/R10), read-out: AUC0-tlast) 403 ng·h/mL; (mean of 3 rats, read-out: AUC0-tlast, Mean ± SD) 409 ± 15.1 ng·h/mL; (second animal (R08/R05/R02/R11), read-out: AUC0-tlast) 426 ng·h/mL; (third animal (R09/R06/R03/R12), read-out: AUC0-tlast) 397 ng·h/mL.
